Laboratory results reported in PMC3982398 (Biochemical pharmacology, 2009).
Read-outs that look alike come from different tables or passages of the source.

Assays:
[1] = tested on: human placental microsomes
human hepatic microsomes [2] = tested on: human hepatic microsomes
[3] = compared with glyburide; ref [12], [13]; cited from earlier work
[4] = tested on: human placental microsomes; conditions: sulfaphenazole 10 μM, lansoprazole 10 μM, troleandomycin 50 and 200 μM, quinidine 5 μM, 4-methylpyrazole 25 μM
[5] = cited from earlier work
human hepatic microsomes [6] = assay type: in vitro ADME; conditions: ketoconazole 0.5 μM, troleandomycin 50 μM, sulfaphenazole 40 μM; for decrease in formation of M2a: lansoprazole 10 μM; for decrease in the aggregate (total) amount of metabolites formed: α-naphthoflavone 0.05 μM
CYP19 = conditions: ref [27]; cited from earlier work

## COc1ccc(Cl)cc1C(=O)NCCc1ccc(S(=O)(=O)NC(=O)N[C@H]2CCC[C@@H](O)C2)cc1 (relative stereo) [M2b, 3-cis-hydroxycyclohexyl glyburide]
[1]
  amount of metabolite formed as percent of the total metabolites: 1%
Human hepatic microsomes [2]
  amount of metabolite formed as percent of the total metabolites: 12%
[3]
  potency in lowering the concentration of glucose: as potent as glyburide

## COc1ccc(Cl)cc1C(=O)NCCc1ccc(S(=O)(=O)NC(=O)N[C@@H]2CCCC[C@H]2O)cc1 (relative stereo) [M4, 2-trans-hydroxycyclohexyl glyburide]
[1]
  amount of metabolite formed as percent of the total metabolites: 1%
Human hepatic microsomes [2]
  amount of metabolite formed as percent of the total metabolites: 4%

## C[C@]12CCC(=O)C(O)=C1CC[C@@H]1[C@@H]2CC[C@]2(C)C(=O)CC[C@@H]12 [4-hydroxyandrostenedione]
[4]; 4-hydroxyandrostenedione 10 μM, α-naphthoflavone 0.05 μM
  decrease in M5 formation: 87%

## COc1ccc(Cl)cc1C(=O)NCCc1ccc(S(=O)(=O)NC(=O)N[C@H]2CC[C@H](O)CC2)cc1 [M1, 4-trans-hydroxycyclohexyl glyburide]
[1]
  amount of metabolite formed as percent of the total metabolites: 4%
[3]
  potency in lowering the concentration of glucose: as potent as glyburide

## COc1ccc(Cl)cc1C(=O)NCCc1ccc(S(=O)(=O)NC(=O)N[C@H]2CC[C@@H](O)CC2)cc1 [M2a, 4-cis-hydroxycyclohexyl glyburide]
[1]
  amount of metabolite formed as percent of the total metabolites: negligible
Human hepatic microsomes [2]
  amount of metabolite formed as percent of the total metabolites: 11%

## COc1ccc(Cl)cc1C(=O)NCCc1ccc(S(=O)(=O)NC(=O)NC2CCCC(O)C2)cc1 (stereo not drawn) [M3, 3-trans-hydroxycyclohexyl glyburide]
[1]
  amount of metabolite formed as percent of the total metabolites: 1%
Human hepatic microsomes [2]
  amount of metabolite formed as percent of the total metabolites: 6%

## COc1ccccc1Oc1c(NS(=O)(=O)c2ccc(C(C)(C)C)cc2)nc(-c2ncccn2)nc1OCCO [bosentan]
[5]; ref [18]
  effect of administration on plasma levels of glyburide: lowered plasma levels of glyburide

## CC(=O)N1CCN(c2ccc(OCC3COC(Cn4ccnc4)(c4ccc(Cl)cc4Cl)O3)cc2)CC1 (stereo not drawn) [ketoconazole]
Human hepatic microsomes [6]
  decrease in formation of M1: ≤ 20%
  decrease in formation of M2b: ≤ 20%
  decrease in formation of M3: ≥ 50%
  decrease in formation of M4: ≥ 50%
  decrease in formation of M5: 93%
  decrease in formation of M2a: approximately 40%
  decrease in the aggregate (total) amount of metabolites formed: 53%

## Cc1c(OCC(F)(F)F)ccnc1C[S+]([O-])c1nc2ccccc2[nH]1 (stereo not drawn) [lansoprazole]
Human hepatic microsomes [6]
  decrease in formation of M2a: ≈ 20%
[4]
  effect on the aggregate amount of metabolites: negligible

## C=C[C@H]1C[N@@]2CC[C@H]1C[C@@H]2[C@@H](O)c1ccnc2ccc(OC)cc12 [quinidine]
[4]
  effect on the aggregate amount of metabolites: negligible

## CO[C@H]1/C=C/O[C@@]2(C)Oc3c(C)c(O)c4c(O)c(c(/C=N/N5CCN(C)CC5)c(O)c4c3C2=O)NC(=O)/C(C)=C\C=C\[C@H](C)[C@H](O)[C@@H](C)[C@@H](O)[C@@H](C)[C@H](OC(C)=O)[C@@H]1C [rifampin]
[5]; ref [30]
  effect of administration on plasma levels of glyburide: lowered plasma levels of glyburide

## Nc1ccc(S(=O)(=O)Nc2ccnn2-c2ccccc2)cc1 [sulfaphenazole]
Human hepatic microsomes [6]
  decrease in formation of M1: approximately 40%
  decrease in formation of M2b: approximately 40%
  decrease in formation of M3: ≤ 20%
  decrease in formation of M4: ≤ 20%
  decrease in formation of M5: ≤ 20%
  decrease in formation of M2a: approximately 40%
  decrease in the aggregate (total) amount of metabolites formed: 28%
[4]
  effect on the aggregate amount of metabolites: negligible

## O=c1cc(-c2ccccc2)oc2c1ccc1ccccc12 [α-naphthoflavone]
CYP19
  inhibition of CYP19: inhibitor of CYP19
